How the values were obtained:
Assay in all cases: relative viability (nuclei count vs DMSO), 5 days (fraction); higher = more cells survive
NCI-H1993 = system: NCI-H1993
How it was run: (§1)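 Lung cancer cell lines, seeded in 1536-well plates, were treated the following day by pin tool with a single drug or with five library-drug doses (not always all listed) in √10 steps on top of a fixed anchor-drug dose. Cells were fixed and nuclei stained in one step after 5 days, and nuclei were counted. Relative viability is the nuclei count for treated wells divided by that for vehicle wells, reported as medians of duplicate plates.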

NCI-H596 = system: NCI-H596
How it was run: as §1

CAL-12T = system: CAL-12T
How it was run: as §1

NCI-H2085 = system: NCI-H2085
How it was run: as §1

HCC-366 = system: HCC-366
How it was run: as §1

NCI-H1648 = system: NCI-H1648
How it was run: as §1

NCI-H2405 = system: NCI-H2405
How it was run: as §1

NCI-H1734 = system: NCI-H1734
How it was run: as §1

NCI-H1623 = system: NCI-H1623
How it was run: as §1

## COCC1(CO)C(=O)C2CCN1CC2 (stereo not drawn) [PRIMA-1MET] + Cc1cc(Nc2cc(N3CCN(C)CC3)nc(Sc3ccc(NC(=O)C4CC4)cc3)n2)n[nH]1 [Tozasertib] (partner 0.1 µM)
NCI-H1993; first compound 0.2 µM
  relative viability: 0.674
NCI-H1993; first compound 0.6325 µM
  relative viability: 0.541
NCI-H1993; first compound 2 µM
  relative viability: 0.566
NCI-H1993; first compound 6.325 µM
  relative viability: 0.569
NCI-H1993; first compound 20 µM
  relative viability: 0.662
NCI-H596; first compound 0.2 µM
  relative viability: 0.96
NCI-H596; first compound 0.6325 µM
  relative viability: 0.803
NCI-H596; first compound 2 µM
  relative viability: 0.869
NCI-H596; first compound 6.325 µM
  relative viability: 1.02
NCI-H596; first compound 20 µM
  relative viability: 0.102
CAL-12T; first compound 0.2 µM
  relative viability: 0.339
CAL-12T; first compound 0.6325 µM
  relative viability: 0.275
CAL-12T; first compound 2 µM
  relative viability: 0.282
CAL-12T; first compound 6.325 µM
  relative viability: 0.326
CAL-12T; first compound 20 µM
  relative viability: 0.263
NCI-H2085; first compound 0.2 µM
  relative viability: 0.936
NCI-H2085; first compound 0.6325 µM
  relative viability: 0.927
NCI-H2085; first compound 2 µM
  relative viability: 0.84
NCI-H2085; first compound 6.325 µM
  relative viability: 0.828
NCI-H2085; first compound 20 µM
  relative viability: 0.227
HCC-366; first compound 0.2 µM
  relative viability: 0.109
HCC-366; first compound 0.6325 µM
  relative viability: 0.107
HCC-366; first compound 2 µM
  relative viability: 0.107
HCC-366; first compound 6.325 µM
  relative viability: 0.209
HCC-366; first compound 20 µM
  relative viability: 0.0297
NCI-H1648; first compound 0.2 µM
  relative viability: 0.415
NCI-H1648; first compound 0.6325 µM
  relative viability: 0.361
NCI-H1648; first compound 2 µM
  relative viability: 0.391
NCI-H1648; first compound 6.325 µM
  relative viability: 0.574
NCI-H1648; first compound 20 µM
  relative viability: 0.465
NCI-H2405; first compound 0.2 µM
  relative viability: 0.735
NCI-H2405; first compound 0.6325 µM
  relative viability: 0.812
NCI-H2405; first compound 6.325 µM
  relative viability: 0.667
NCI-H2405; first compound 20 µM
  relative viability: 0.329
NCI-H1734; first compound 0.2 µM
  relative viability: 0.294
NCI-H1734; first compound 0.6325 µM
  relative viability: 0.265
NCI-H1734; first compound 2 µM
  relative viability: 0.233
NCI-H1734; first compound 6.325 µM
  relative viability: 0.181
NCI-H1734; first compound 20 µM
  relative viability: 0.0526
NCI-H1623; first compound 0.2 µM
  relative viability: 0.474
NCI-H1623; first compound 0.6325 µM
  relative viability: 0.449
NCI-H1623; first compound 2 µM
  relative viability: 0.445
NCI-H1623; first compound 6.325 µM
  relative viability: 0.452
NCI-H1623; first compound 20 µM
  relative viability: 0.367

## COCC1(CO)C(=O)C2CCN1CC2 (stereo not drawn) [PRIMA-1MET] + Cc1nc(Nc2ncc(C(=O)Nc3c(C)cccc3Cl)s2)cc(N2CCN(CCO)CC2)n1 [Dasatinib] (partner 0.075 µM)
NCI-H1993; first compound 0.2 µM
  relative viability: 0.596
NCI-H1993; first compound 0.6325 µM
  relative viability: 0.587
NCI-H1993; first compound 2 µM
  relative viability: 0.574
NCI-H1993; first compound 6.325 µM
  relative viability: 0.554
NCI-H1993; first compound 20 µM
  relative viability: 0.582
NCI-H596; first compound 0.2 µM
  relative viability: 0.701
NCI-H596; first compound 0.6325 µM
  relative viability: 0.563
NCI-H596; first compound 2 µM
  relative viability: 0.597
NCI-H596; first compound 6.325 µM
  relative viability: 0.79
NCI-H596; first compound 20 µM
  relative viability: 0.147
CAL-12T; first compound 0.2 µM
  relative viability: 0.34
CAL-12T; first compound 0.6325 µM
  relative viability: 0.341
CAL-12T; first compound 2 µM
  relative viability: 0.456
CAL-12T; first compound 6.325 µM
  relative viability: 0.364
CAL-12T; first compound 20 µM
  relative viability: 0.0829
NCI-H2085; first compound 0.2 µM
  relative viability: 0.248
NCI-H2085; first compound 0.6325 µM
  relative viability: 0.23
NCI-H2085; first compound 2 µM
  relative viability: 0.249
NCI-H2085; first compound 6.325 µM
  relative viability: 0.248
NCI-H2085; first compound 20 µM
  relative viability: 0.192
HCC-366; first compound 0.2 µM
  relative viability: 0.854
HCC-366; first compound 0.6325 µM
  relative viability: 0.527
HCC-366; first compound 2 µM
  relative viability: 0.619
HCC-366; first compound 6.325 µM
  relative viability: 0.67
HCC-366; first compound 20 µM
  relative viability: 0.318
NCI-H2405; first compound 0.2 µM
  relative viability: 0.197
NCI-H2405; first compound 0.6325 µM
  relative viability: 0.199
NCI-H2405; first compound 6.325 µM
  relative viability: 0.169
NCI-H2405; first compound 20 µM
  relative viability: 0.0902
NCI-H1734; first compound 0.2 µM
  relative viability: 0.498
NCI-H1734; first compound 0.6325 µM
  relative viability: 0.303
NCI-H1734; first compound 2 µM
  relative viability: 0.426
NCI-H1734; first compound 6.325 µM
  relative viability: 0.384
NCI-H1734; first compound 20 µM
  relative viability: 0.0495
NCI-H1623; first compound 0.2 µM
  relative viability: 0.517
NCI-H1623; first compound 0.6325 µM
  relative viability: 0.563
NCI-H1623; first compound 2 µM
  relative viability: 0.518
NCI-H1623; first compound 6.325 µM
  relative viability: 0.577
NCI-H1623; first compound 20 µM
  relative viability: 0.519

From the supplement of paper PMC10307832
